Drawing on the Deep4Chem optical property database, this text covers photoluminescence quantum yield for 44 compounds.

The nature of the data set: photoluminescence quantum yield (fraction); solvent given as SMILES.

Compound `CN(C)c1ccc(C#Cc2ccccc2)cc1` came in with a photoluminescence quantum yield (in C1CCCCC1) of 0.35; a photoluminescence quantum yield (in C1CCOC1) of 0.244; a photoluminescence quantum yield (in C1COCCO1) of 0.32; a photoluminescence quantum yield (in CC1CCCO1) of 0.314; a photoluminescence quantum yield (in CC#N) of 0.102; a photoluminescence quantum yield (in CC(C)=O) of 0.103. Also, the photoluminescence quantum yield is 0.28 (in CC(C)CC(C)(C)C); 0.011 (in CC(C)O); 0.372 (in CCCCCCCCCCCCCCCC); 0.409 (in CCCCCCCCCCCCCCCCCl); 0.25 (in CCOC(C)=O); 0.11 (in CCOCC). In addition, the photoluminescence quantum yield reads like this: (in CN(C)C=O) 0.3; (in CO) 0.01; (in CS(C)=O) 0.29; (in Cc1ccccc1) 0.39.
Where the note is “in CCO”, `CC(NC(=O)OC(C)(C)C)C(=O)OCc1ccc2c3cccc4cccc(c5cccc1c52)c43` (stereo unspecified) gave a photoluminescence quantum yield of 0.88.
Take `O=P1(c2ccccc2)C(c2ccc(C3=Cc4ccccc4P3(=O)c3ccccc3)cc2)=Cc2ccccc21` (stereo unspecified): under “in C1CCOC1”, the photoluminescence quantum yield was 0.29.
`CCCCN(CCCC)c1ccc2c#cc3cc4c#cc5ccc(C(F)(F)F)cc5c#cc#cc5cc(C(F)(F)F)ccc5c#cc4cc3c#cc3ccc(N(CCCC)CCCC)cc3c#cc#cc2c1` gave a photoluminescence quantum yield (in ClCCl) of 0.35.
As to `O=c1[nH]c(=O)n([C@@H]2O[C@H](CO)[C@@H](O)[C@H]2O)cc1-c1cc2ccccc2s1`, the photoluminescence quantum yield is 0.06 (in C1COCCO1), 0.034 (in CC#N), 0.047 (in CO) and 0.035 (in O).
Regarding `c1ccc2c(c1)c1ccccc1c1[nH]c(-c3ccc(-c4nc5c6ccccc6c6ccccc6c5[nH]4)cc3)nc21`, the photoluminescence quantum yield runs as follows: (in C1CCOC1) 0.79; (in CC#N) 0.76; (in CCO) 0.77; (in CS(C)=O) 0.78; (in ClCCl) 0.76.
On to `CC(C)(C)c1ccc(C2=C(c3ccc(-n4c5ccccc5c5ccccc54)cc3)S(=O)(=O)c3c2sc(-c2ccc(-n4c5ccccc5c5ccccc54)cc2)c3-c2ccc(C(C)(C)C)cc2)cc1`, for which the photoluminescence quantum yield (in C1CCOC1) is 0.056.
Turning to `Cc1cc(C)c(-c2nnc(-c3ccc(-n4c5ccccc5c5ccccc54)cc3)o2)c(C)c1`, the photoluminescence quantum yield (in Cc1ccccc1) worked out at 0.59.
With `COC(=O)C(NC(=O)CCNc1cccc2ccccc12)c1ccccc1` (stereo unspecified), the photoluminescence quantum yield (in CCO) was 0.55.
With `CCCCCCCCn1c2ccc(/C=C/c3ccc(N(c4ccccc4)c4ccccc4)cc3)cc2c2cc3c(cc21)c1cc(/C=C/c2ccc(N(c4ccccc4)c4ccccc4)cc2)ccc1n3CCCCCCCC`, for the setting “in Cc1ccccc1”, the photoluminescence quantum yield was found to be 0.6.
`CC(C)[Si](C#Cc1c2ccccc2c(C#C[Si](C(C)C)(C(C)C)C(C)C)c2nc3c(ccc4ccccc43)nc12)(C(C)C)C(C)C` had a photoluminescence quantum yield (in CCCCCC) of 0.51.
The compound `CC1=CC(c2ccc3cc(N(C)C)ccc3c2)=[O+][B-](F)(F)O1` displayed a photoluminescence quantum yield (in C1CCOC1) of 0.91; a photoluminescence quantum yield (in CC#N) of 0.14; a photoluminescence quantum yield (in CC(C)=O) of 0.53; a photoluminescence quantum yield (in CS(C)=O) of 0.22; a photoluminescence quantum yield (in Cc1ccccc1) of 0.93; a photoluminescence quantum yield (in ClC(Cl)Cl) of 0.97. Further, the photoluminescence quantum yield (in ClCCl) is 0.99.
As for `CSc1cc(-c2cc3cc4c5c(c3oc2=O)CCCN5CCC4)oc(=O)c1C#N`, the photoluminescence quantum yield by setting is: (in C1CCOC1) 0.9; (in CC#N) 0.29; (in CC(C)=O) 0.43; (in CCOC(C)=O) 0.67; (in CN(C)C=O) 0.26; (in CO) 0.22. Also, the photoluminescence quantum yield turned out to be 0.29 (in CS(C)=O), 0.71 (in Cc1ccccc1), 0.53 (in ClC(Cl)Cl) and 0.63 (in ClCCl).
For `CCCCc1ccc(-n2c3c(c4c2c2c(n4-c4ccc(CCCC)cc4)-c4ccc(C(F)(F)F)cc4NB2c2ccccc2)B(c2ccccc2)Nc2cc(C(F)(F)F)ccc2-3)cc1`, for the setting “in Cc1ccccc1”, the photoluminescence quantum yield worked out at 0.78.
`Cc1ccc(C#Cc2c3cc4ccccc4cc3c(C#C[Si](C(C)C)(C(C)C)C(C)C)c3cc4ccccc4cc23)cc1`: for the setting “in ClCCl”, the photoluminescence quantum yield was found to be 0.1.
On to `CCCCCCc1ccc(-n2c3[n+](c4c5ccccc5c5ccccc5c42)[B-](C)(C)c2ccccc2-3)cc1`, for which the photoluminescence quantum yield is 0.45 (in C1CCOC1), 0.28 (in CC#N), 0.46 (in Cc1ccccc1) and 0.38 (in ClCCl).
Under “in Cc1ccccc1”, `COc1ccccc1-c1nc2c3cccnc3c3ncccc3c2n1-c1ccccc1` gave a photoluminescence quantum yield of 0.064.
`CCC(C)(C)c1ccc2c(c1)C(CC)(CC)c1cc(-c3ccc(-c4ccc5c(c4)C(CC)(CC)c4cc(C(C)(C)CC)ccc4-5)cc3)ccc1-2` registered a photoluminescence quantum yield (in C1CCCCC1) of 1.
On to `Oc1ccc(-c2ccco2)cc1-c1nc2ccccc2s1`, for which the photoluminescence quantum yield (in CCO) came to 0.0588, the photoluminescence quantum yield (in ClCCl) was 0.0292 and the photoluminescence quantum yield (in O) is 0.07.
`c1cc(-c2ccc(-n3c4ccccc4c4ccccc43)cc2)c2nsnc2c1` registered a photoluminescence quantum yield (in ClCCl) of 0.68.
For the compound `c1ccc(-c2nc3c4ccccc4c4ccccc4c3n2-c2ccc(-c3nc4c5ccccc5c5ccccc5c4n3-c3ccccc3)cc2)cc1`, the photoluminescence quantum yield (in Cc1ccccc1) was found to be 0.82.
`COc1ccc(-c2csc(/C(C#N)=C/c3ccccc3Cl)n2)cc1`: the photoluminescence quantum yield (in CC#N) was found to be 0.062.
For the setting “in ClCCl”, `CN(C)c1ccc(/C=C/c2ncnc3ccccc23)cc1` showed a photoluminescence quantum yield of 0.07.
In the case of `c1ccc(-c2nc(-c3ccccc3)nc(-c3ccc(-c4ccc(N5c6ccccc6[Si](c6ccccc6)(c6ccccc6)c6ccccc65)cc4)cc3)n2)cc1`, the photoluminescence quantum yield (in c1cc(-n2c3ccccc3c3ccccc32)cc(-n2c3ccccc3c3ccccc32)c1) worked out at 0.38.
For the compound `COC(=O)c1nc(-c2ccc(OC)cc2)oc1C`, the photoluminescence quantum yield (in C1CCCCC1) turned out to be 0.55, the photoluminescence quantum yield (in CC#N) stood at 0.38, the photoluminescence quantum yield (in CCO) stood at 0.41 and the photoluminescence quantum yield (in CCOC(C)=O) is 0.31.
Turning to `COc1ccc2cc(C3=[N+]4C(=Nc5c(-c6ccccc6)cc(-c6ccc7cc(OC)ccc7c6)n5[B-]4(F)F)C(c4ccccc4)=C3Br)ccc2c1`, the photoluminescence quantum yield runs as follows: (in ClC(Cl)Cl) 0.12; (in ClCCl) 0.12.
`COc1ccc(-c2ccc(-c3cc(-c4ccccn4)nc(-c4ccccn4)c3)cc2)cc1` gave a photoluminescence quantum yield (in ClCCl) of 0.5.
Consider `CCCCCCCCc1ccc(-c2ccc(/C=C(\C#N)c3ccc(-c4cccc5cccc(-c6ccc(/C(C#N)=C/c7ccc(-c8ccc(CCCCCCCC)cc8)cc7)cc6)c45)cc3)cc2)cc1`, for which the photoluminescence quantum yield (in Cc1ccccc1) came out at 0.12.
Consider `CN(C)c1ccc2nc(/C=C/c3cc4c5c(c3)CCCN5CCC4)c(=O)oc2c1`, for which the photoluminescence quantum yield turned out to be 0.37 (in C1CCCCC1); 0.56 (in C1COCCO1); 0.023 (in CC#N); 0.08 (in CC(C)=O); 0.32 (in CCCCCCC); 0.008 (in CCO). The photoluminescence quantum yield (in CCOC(C)=O) was found to be 0.39; the photoluminescence quantum yield (in CN(C)C=O) stood at 0.036; the photoluminescence quantum yield (in CS(C)=O) amounted to 0.03; the photoluminescence quantum yield (in Cc1ccccc1) was 0.55; the photoluminescence quantum yield (in ClC(Cl)Cl) came out at 0.2; the photoluminescence quantum yield (in ClCCl) came out at 0.19.
`COc1ccccc1C1=[N+]2C(=Nc3c(-c4ccccc4)cc(-c4ccccc4OC)n3[B-]2(F)F)C(c2ccccc2)=C1`: the photoluminescence quantum yield (in Cc1ccccc1) turned out to be 0.07.
Take `CCCCN1c2ccccc2Sc2cc(/C=C\c3cc(=O)oc4cc(C)ccc34)ccc21`: the photoluminescence quantum yield (in ClC(Cl)Cl) came to 0.21.
On to `Cc1c(C)n2c(COC(=O)c3ccccc3I)c(C)c(=O)n2c1=O`, for which the photoluminescence quantum yield (in CCO) came to 0.634.
`CC(C)(C)c1ccc2c(c1)c1cc(C(C)(C)C)ccc1n2-c1ccc(C#Cc2ccc(C=O)cc2)cc1` displayed a photoluminescence quantum yield (in ClCCl) of 0.1.
As to `CC1=c2c3c4cccc5cccc(c=3c(C)[n+]2[B-](F)(F)n2c(C)c3c(c21)-c1cccc2cccc-3c12)c54`, for the setting “in ClC(Cl)Cl”, the photoluminescence quantum yield was determined as 0.
`CCOC(=O)c1sc2nc(C)c(CC)c(C#N)c2c1N` came in with a photoluminescence quantum yield (in c1ccccc1) of 0.054.
On to `CC1(C)C2=[N+](CCCCCC(=O)NCCCNC(=O)CCCCCN3/C(=C/C=C/C=C/C=C/2)C(C)(C)c2cc(S(=O)(=O)[O-])ccc23)c2ccc(S(=O)(=O)[O-])cc21`, for which the photoluminescence quantum yield by setting is: (in CO) 0.58; (in O) 0.36.
Compound `N#Cc1c(-n2nnc3c2-c2ccccc2CN(C(=O)CCN)c2ccccc2-3)n([C@H]2C[C@H](O)[C@@H](CO)O2)c2ncnc(N)c12` had a photoluminescence quantum yield (in CO) of 0.005.
On to `CC(C)(C)c1ccc(-c2nnc(-c3c(-n4c5ccccc5c5ccccc54)c(-n4c5ccccc5c5ccccc54)c(-n4c5ccccc5c5ccccc54)c(-n4c5ccccc5c5ccccc54)c3-n3c4ccccc4c4ccccc43)o2)cc1`, for which the photoluminescence quantum yield (in Cc1ccccc1) is 0.13.
As for `c1ccc(-c2nc(-c3c[nH]c4ccccc34)n3ccccc23)cc1`, the photoluminescence quantum yield (in ClCCl) worked out at 0.162.
Still for that read-out and setting: to `COc1ccc(N2c3sc4ccccc4c3Sc3c2sc2ccccc32)cc1` belongs 0.23.
Compound `c1ccc2c(c1)[nH]c1ncccc12` registered a photoluminescence quantum yield (in CC#N) of 0.47 and a photoluminescence quantum yield (in CCCCCC) of 0.31.
As for `CC1(C)C(/C=C/C=C/C=C/C=C2/N(CCCCCC(=O)O)c3ccc(S(=O)(=O)[O-])cc3C2(C)C)=[N+](CCCCCC(=O)O)c2ccc(S(=O)(=O)[O-])cc21`, the photoluminescence quantum yield was 0.62 (in CO) and 0.28 (in O).
For the compound `COc1cc(/C=C/CO)ccc1O`, the photoluminescence quantum yield (in O) is 0.1.
`CCCCCCOc1ccc2oc3c(c2c1)=CC1=C(c2ccccc2C)c2cc4c5cc(OCCCCCC)ccc5oc4n2[B-](F)(F)[N+]=31`: the photoluminescence quantum yield runs as follows: (in C1CCCCC1) 0.96; (in CCOC(C)=O) 0.73; (in CO) 0.29.
